Literature values, collected in patent publication US12036548B2, “Organs-on-chips as a platform for epigenetics discovery” (EMULATE, INC., priority 2018, dated 2024).

Details: normal nutritional iodine supply

For `II` [iodine], the “fraction taken up and stored by a normally functioning thyroid gland” value is given as 15-30%.
